Data as given in patent US20200031778A1, “NOVEL 5-SUBSTITUTED IMIDAZOLYLMETHYL DERIVATIVES” (Bayer CropScience Aktiengesellschaft, priority 2016, published 2020).
Blank lines part the entries; values can stand above or below the molecule they belong to.

Tests used:
Septoria tritici = assay: Example IX-B: in vivo preventive test on Septoria tritici (leaf spot on wheat); details: Zymoseptoria tritici, 576 h; compounds of formula IX; 500 ppm of active ingredient; wheat plants, preventive spray; evaluated 24 days after inoculation; read-out: efficacy
Summary of the method: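 Wheat seedlings sprayed preventively with compound dissolved in DMSO/acetone/Tween 80 and diluted in water; solvent-only controls. Spore suspension of S. tritici sprayed 24 h later; 72 h at 18 °C/100% RH, then 21 days at 20 °C/90% RH. Efficacy scored 24 days post-inoculation, 0% = control, 100% = no disease.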

Puccinia recondita = assay: Example IX-A: in vivo preventive test on Puccinia recondita (brown rust on wheat); details: 264 h, compounds of formula IX, 500 ppm of active ingredient, wheat plants, preventive spray, evaluated 11 days after inoculation, read-out: efficacy
Summary of the method: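 Young wheat plants sprayed with compound in DMSO/acetone/Tween 80 diluted in water, inoculated 24 h later with spore suspension. Incubated 24 h at 20 °C, 100% RH, then 10 days at 20 °C, 70-80% RH. Efficacy scored 11 days post-inoculation, 0% equal to solvent-treated controls, 100% no disease.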

Sphaerotheca fuliginea [1] = assay: Example IX-C: in vivo preventive test on Sphaerotheca fuliginea (powdery mildew on cucurbits); details: Podosphaera fuliginea, 360 h; compounds of formula IX; 500 ppm of active ingredient; gherkin plants, preventive spray; evaluated 15 days after inoculation; read-out: efficacy
Summary of the method: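 Young gherkin plants sprayed with compound in DMSO/acetone/Tween 80 diluted in water, then inoculated 24 h later with Sphaerotheca fuliginea spores. Kept 72 h at 18 °C/100% RH, then 12 days at 20 °C/70-80% RH; efficacy scored 15 days post-inoculation, 0% = control, 100% = no disease.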

Uromyces appendiculatus = assay: Example IX-D: in vivo preventive test on Uromyces appendiculatus (bean rust); details: 264 h, compounds of formula IX, 500 ppm of active ingredient, bean plants, preventive spray, evaluated 11 days after inoculation, read-out: efficacy
Experimental: Example IX-D: In Vivo Preventive Test on Uromyces Appendiculatus (Bean Rust)
The active ingredients are made soluble and homogenized in a mixture of Dimethyl sulfoxide/Acetone/Tween® 80 and then diluted in water to the desired concentration.
The young plants of bean are treated by spraying the active ingredient prepared as described above. Control plants are treated only with an aqueous solution of Acetone/Dimethyl sulfoxide/Tween® 80.
After 24 hours, the plants are contaminated by spraying the leaves with an aqueous suspension of Uromyces appendiculatus spores. The contaminated bean plants are incubated for 24 hours at 20° C. and at 100% relative humidity and then for 10 days at 20° C. and at 70-80% relative humidity.
The test is evaluated 11 days after the inoculation. 0% means an efficacy which corresponds to that of the control plants while an efficacy of 100% means that no disease is observed.
control plants while an efficacy of 100% means that no disease was observed.

[2] = Log P by HPLC on reversed phase columns (EEC directive 79/831 Annex V.A8; methods [a], [b], [c]); format: physicochemical
Summary of the method: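 Log P derived from retention times, interpolated linearly between bracketing straight-chain alkan-2-ones (3–16 carbons) of known Log P. Eluents ran acetonitrile 10% to 95% against water with 0.1% formic acid ([a], acidic), 0.001 M ammonium acetate ([b], neutral) or 0.1% phosphoric acid ([c], acidic); UV read-out.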

Sphaerotheca fuliginea [3] = assay: Example D: in vivo preventive test on Sphaerotheca fuliginea (powdery mildew on cucurbits); details: Podosphaera fuliginea, 360 h, read-out: efficacy
Experimental: Example D: In Vivo Preventive Test on Sphaerotheca Fuliginea (Powdery Mildew on Cucurbits)
The active ingredients were made soluble and homogenized in a mixture of Dimethyl sulfoxide/Acetone/Tween® 80 and then diluted in water to the desired concentration.
The young plants of gherkin were treated by spraying the active ingredient prepared as described above. Control plants were treated only with an aqueous solution of Acetone/Dimethyl sulfoxide/Tween® 80.
After 24 hours, the plants were contaminated by spraying the leaves with an aqueous suspension of Sphaerotheca fuliginea spores. The contaminated gherkin plants were incubated for 72 hours at 18° C. and at 100% relative humidity and then for 12 days at 20° C. and at 70-80% relative humidity.
The test was evaluated 15 days after the inoculation. 0% means an efficacy which corresponds to that of the control plants while an efficacy of 100% means that no disease was observed.

[4] = reversed phase HPLC column, method [a]: LC-UV, acidic range, 0.1% formic acid in water and acetonitrile as eluent (linear gradient from 10% to 95% acetonitrile)

Compound: O=C(Cn1cncc1F)c1cnc(Oc2ccc(Cl)cc2F)cc1C(F)(F)F [IX-95]
pest or weed control at 500 ppm (Septoria tritici): 70 to 79%
pest or weed control at 500 ppm (Puccinia recondita): 70 to 79%
pest or weed control at 500 ppm (Sphaerotheca fuliginea [1]): 90 to 100%
pest or weed control at 500 ppm (Uromyces appendiculatus): 90 to 100%
chromatographic logP [2, 4]: 2.84

Compound: O=C(Cn1cncc1Cl)c1cnc(Oc2ccc(Cl)cc2)cc1Br [IX-50]
pest or weed control at 500 ppm (Septoria tritici): 90 to 100%
pest or weed control at 500 ppm (Puccinia recondita): 80 to 89%
pest or weed control at 500 ppm (Sphaerotheca fuliginea [1]): 90 to 100%
pest or weed control at 500 ppm (Uromyces appendiculatus): 90 to 100%
chromatographic logP [2, 4]: 2.82

Compound: O=C(Cn1cncc1F)c1ccc(Oc2ccc(Cl)cc2)cc1C(F)(F)F [IX-83]
pest or weed control at 500 ppm (Septoria tritici): 90 to 100%
pest or weed control at 500 ppm (Puccinia recondita): 80 to 89%
pest or weed control at 500 ppm (Sphaerotheca fuliginea [1]): 80 to 89%
pest or weed control at 500 ppm (Uromyces appendiculatus): 90 to 100%
chromatographic logP [2, 4]: 2.88

Compound: N#Cc1cncn1CC(O)(C#CC1CCCCC1)C1(Cl)CC1 (centres unmarked) [I-542, 1-[2-(1-chlorocyclopropyl)-4-cyclohexyl-2-hydroxybut-3-yn-1-yl]-1H-imidazole-5-carbonitrile]
pest or weed control at 500 ppm (Sphaerotheca fuliginea [3]): 80 to 89%
chromatographic logP ([2]; HPLC on reversed phase column, method [a]): 2.96

Compound: O=C(Cn1cncc1Cl)c1ccc(Oc2ccc(Br)cn2)cc1Cl [IX-79]
pest or weed control at 500 ppm (Septoria tritici): 90 to 100%
pest or weed control at 500 ppm (Puccinia recondita): 80 to 89%
pest or weed control at 500 ppm (Sphaerotheca fuliginea [1]): 90 to 100%
pest or weed control at 500 ppm (Uromyces appendiculatus): 90 to 100%
chromatographic logP [2, 4]: 2.59

Compound: O=C(Cn1cncc1F)c1cnc(Oc2ccc(Cl)cc2)cc1Br [IX-93]
pest or weed control at 500 ppm (Septoria tritici): 90 to 100%
pest or weed control at 500 ppm (Puccinia recondita): 80 to 89%
pest or weed control at 500 ppm (Sphaerotheca fuliginea [1]): 90 to 100%
pest or weed control at 500 ppm (Uromyces appendiculatus): 90 to 100%
chromatographic logP [2, 4]: 2.39

Compound: O=C(Cn1cncc1Cl)c1ccc(Oc2ccc(Br)nc2)cc1Cl [IX-78]
pest or weed control at 500 ppm (Septoria tritici): 90 to 100%
pest or weed control at 500 ppm (Puccinia recondita): 80 to 89%
pest or weed control at 500 ppm (Sphaerotheca fuliginea [1]): 90 to 100%
pest or weed control at 500 ppm (Uromyces appendiculatus): 90 to 100%
chromatographic logP [2, 4]: 2.32

More lines, main results first:

chromatographic logP [2, 4]: 3.33
Compound: O=C(Cn1cncc1Cl)c1ccc(Oc2ccc(C(F)(F)F)cc2)cc1Cl [IX-14]
pest or weed control at 500 ppm (Septoria tritici): 90 to 100%
pest or weed control at 500 ppm (Puccinia recondita): 90 to 100%
pest or weed control at 500 ppm (Sphaerotheca fuliginea [1]): 90 to 100%
pest or weed control at 500 ppm (Uromyces appendiculatus): 90 to 100%

chromatographic logP [2, 4]: 2.52
Compound: O=C(Cn1cncc1F)c1ccc(Oc2ccc(Cl)cc2)cc1Cl [IX-65]
pest or weed control at 500 ppm (Septoria tritici): 90 to 100%
pest or weed control at 500 ppm (Puccinia recondita): 90 to 100%
pest or weed control at 500 ppm (Sphaerotheca fuliginea [1]): 90 to 100%
pest or weed control at 500 ppm (Uromyces appendiculatus): 90 to 100%

chromatographic logP [2, 4]: 3.71
Compound: N#Cc1cncn1CC(=O)c1ccc(Oc2ccc(I)cc2)cc1Cl [IX-68]
pest or weed control at 500 ppm (Septoria tritici): 90 to 100%
pest or weed control at 500 ppm (Puccinia recondita): 90 to 100%
pest or weed control at 500 ppm (Sphaerotheca fuliginea [1]): 90 to 100%
pest or weed control at 500 ppm (Uromyces appendiculatus): 90 to 100%

chromatographic logP [2, 4]: 3.69
Compound: N#Cc1cncn1CC(=O)c1ccc(Oc2ccc(C(F)(F)F)cc2)cc1C(F)(F)F [IX-69]
pest or weed control at 500 ppm (Septoria tritici): 90 to 100%
pest or weed control at 500 ppm (Puccinia recondita): 90 to 100%
pest or weed control at 500 ppm (Sphaerotheca fuliginea [1]): 90 to 100%
pest or weed control at 500 ppm (Uromyces appendiculatus): 90 to 100%

chromatographic logP [2, 4]: 3.27
Compound: N#Cc1cncn1CC(=O)c1ccc(Oc2ccc(Cl)cc2)cc1F [IX-64]
pest or weed control at 500 ppm (Septoria tritici): 90 to 100%
pest or weed control at 500 ppm (Puccinia recondita): 90 to 100%
pest or weed control at 500 ppm (Sphaerotheca fuliginea [1]): 90 to 100%
pest or weed control at 500 ppm (Uromyces appendiculatus): 90 to 100%

chromatographic logP [2, 4]: 3.33
Compound: N#Cc1cncn1CC(=O)c1ccc(Oc2ccc(Br)cc2)cc1F [IX-62]
pest or weed control at 500 ppm (Septoria tritici): 90 to 100%
pest or weed control at 500 ppm (Puccinia recondita): 90 to 100%
pest or weed control at 500 ppm (Sphaerotheca fuliginea [1]): 90 to 100%
pest or weed control at 500 ppm (Uromyces appendiculatus): 90 to 100%
